# Results as given in patent US20170014372A1, “Drug Combination for Treatment of Proliferative Diseases” (ECOLE POLYTECHNIQUE FEDERALE DE LAUSANNE (EPFL), priority 2014, published 2017).
# Columns and labels:
# 786-0 cells = assay: Cell viability assay on 786-0; type: cell-based, human; conditions: 72 h
# Procedure: (§1) Cell viability assay was performed as previously described (31). Cells were seeded in a 96-well culture plate at a density of 2.5-10×10^3 cells/well, depending on cell type (ECRF24 in gelatin-coated plates), 24 h prior to the application drug combinations or control conditions (in a total volume of 50 μl) and were subsequently incubated for an additional 72 h. Cell viability was assessed using the CellTiter-Glo luminescent cell viability assay (Promega, Madison, Wisc., USA).
# ECRF24 cells = assay: Cell viability (proliferation) assay on endothelial cells ECRF24; type: cell-based, human; conditions: for single-drug dose required for the same EC proliferation inhibition as the best combination (90% inhibition): assuming linear dose-response curves; for theoretical dose reduction in combination: vs single-drug dose for 90% inhibition
# Procedure: (§2) Cell viability assay was performed as previously described (31).
# The feedback system control (FSC) technique was employed as previously described (13, 33, 34). In the research presented here, the FSC technique is implemented using the differential evolution (DE) algorithm (35) and two separate optimization were performed with the cellular outputs of ECRF cell viability (proliferation) and migration (wound healing) assays. 19 drug combinations were tested per iteration and 11 iterations were performed in each optimization, or until a plateau in the best output value was reached.
# Drug mixing was performed as follows: stock solutions were first used to prepare the highest concentration of each compound and lower concentrations were prepared through serial dilutions of the higher concentrations. All drug concentrations were prepared 9 times more concentrated than desired to account for dilution by other compounds (or medium when a compound was not included). The drug mixtures were prepared directly before applying drug combinations to cells by first adding the required amount of medium for each combination (i.e.
# all compounds which are included at concentration 0) and then adding the required concentration of each compound, always in the same order. The cells were incubated in 50 μl of each mixture for 72 h in the proliferation assay or for 6 h in the migration assay.
# Second order linear regression models were generated using the data obtained from each optimization. Data was modeled using real concentration values and both concentration values and proliferation output data was transformed using the z-score function in Matlab. The negative values of the 2nd-order terms regression coefficients corresponds to synergistic effect, the positive value to the antagonistic effect. Appropriate data and model verification methods were implemented to ensure the accuracy and reliability of predictions made based on these models. The main assumptions of linear regression models were verified (i.e. weak exogeneity, linearity, constant variance, independence of errors, and lack of multicolinearity). As the presence of multicolinearity was indicated in a few of the regressors in the second order linear regression model of the proliferation data (based on the analysis of variance inflation factors (VIF) and condition indices), a stepwise linear regression was also performed to isolate the most important regressors and remove instabilities in the regression analysis due to multicolinearity. Drug interactions were additionally analyzed using the Compusyn software (14), where a ‘combination index’ (CI) is calculated for drug combinations and CI values less than […] indicate synergistic drug combinations, while CI-values greater than 1 indicate antagonistic drug.
# HUVEC = assay: Cell viability assay on HUVEC; type: cell-based, human; conditions: 72 h
# Procedure: as §2
# A2780 cells = assay: Cell viability assay on A2780; type: cell-based, human; conditions: 72 h
# Procedure: as §1
# [1] = system: panAKT, pMAPK and ribosomal protein S6 (pS6); assay: Western blot of panAKT, pMAPK and pS6 in ECRF24; type: cell-based, human; conditions: 5 hrs incubation
# Procedure: Cells were seeded in a 6-well plate (30×10^4 cells per well) 24 h prior to the removal of medium and application of selected drug combinations or DMSO control (total volume of 2 mL). After an additional 5 hrs of incubation at the given conditions, medium was removed, cells were washed with PBS and 100 μl of buffer lysate was added (prepared on ice and composed of RIPA, protease inhibitors (1:1000) and sodium orthovanadate (1:1000)). Wells were then scratched and cell lysate solution was removed and put on ice for 10 min. Cell supernatant was isolated after centrifuging solution at 12,000 min^−1 for 15 min. A solution of blue buffer (4×)+u-Page Reducing Agent (10×) was added to supernatant and samples were kept at 95 ° C. for 5 min.
# The samples were then run in an electrophoresis gel for 90 min at 125 V. The monoclonal antibodies included phosphorylated Akt (473), total Akt, phosphorylated MAPK, and phosphorylated S6 (235/236 hamster, Cell Signaling). Cell extracts were prepared by detergent lysis [50 mmol/L Tris-HCl (pH 8.0), 150 mmol/L NaCl, 1% NP40, 0.5% sodium deoxycholate, 0.1% SDS containing protease (Sigma, St. Louis, Mo.) and phosphatase (Sigma) inhibitor cocktails]. The soluble protein concentration was determined by micro-BSA assay (Pierce, Rockford Ill.). Protein immunodetection was done by electrophoretic transfer of SDS-PAGE separated proteins to nitrocellulose, incubation with antibody and chemiluminescent second step detection (PicoWest; Pierce). Protein expression was quantified in Fiji by densitometry as previously described (39, 40). Results were expressed as a relative ratio between samples and control.
# [2] = system: A2780 tumors grafted on the CAM; assay: Human ovarian carcinoma (A2780) grafted on the chicken chorioallantoic membrane (CAM); type: in vivo, chicken embryo; conditions: for tumor growth inhibition, single compound at high concentration: high concentration: 29 μg/kg (4) and 615 μg/kg (8); for tumor growth inhibition, single compound at low concentration: low concentration: 2.9 μg/kg (4) and 307 μg/kg (8)
# Procedure: Human ovarian carcinoma tumors were implanted on the CAM as previously described (36). Briefly, fertilized chicken eggs were incubated in a hatching incubator (37° C. and relative humidity 65%), as previously described (37). […] Treatment began when vascularized tumors were visible, 3 days after tumor implantation (EDD10). Drug combinations were prepared as done in in vitro assays, were pre-mixed and administered as a 20 μL intravenously injection. […] On the last day of experiment CAM experiments, tumors were resected, fixed overnight in zinc fixative solution as previously described (38). […] Primary antibody incubation was performed overnight (DIA-310; Dianova, Hamburg, Germany).
# LS174T tumors = assay: Human colorectal adenocarcinoma (LS174T) grafted intradermally in Swiss nu/nu mice; type: in vivo; conditions: treated daily; for tumor growth inhibition: doses per Table 2
# Procedure: Mice were randomized into groups and treated with sham (CTRL), individual drugs, 4+8+9 (M1 and M2), and 4+8 (M3), respectively (Table 2) Individual drugs inhibited tumor growth only by approximately 0% and 6% (4) at 5 and 15 mg/kg, 10% (8) or 23% (9), whereas combinations M1 and M2 by 76±14% and 25±17%, respectively (FIG. 5D). On the last day of the experiment (FIG. 5E) tumors were resected, and paraffin embedded for immunohistochemical staining for endothelial cells (CD31). In M1-treated tumors microvessel density was approximately 80% lower then in sham-treated tumors (CTRL), FIG. 5F.
# FIG. 5. Inhibition of A2780 (A-C) or LS174T (D-F) tumor growth in vivo by the best mixtures optimized. (A) Growth curve of A2780 tumors grafted on the CAM showing tumor volume with respect to treatment day. Treatment was administered i.v. on days 1 and 2 and tumors were excised on the 8th (last) day of experiment. Data points represent the average tumor volume as a percentage of the final control volume per experiment. (B) Figures show representative tumors of sham treated (CTRL) and F drug combination. (C) The microvessel density profiles are expressed as the number of vessels per mm^2 and presented as a percentage of a control. (D) LS174T grafted intradermally in Swiss nu/nu mice and treated daily with single compounds or mixtures. Data points represent the average tumor volume as a percentage of the final control volume per experiment and error bars represent the SEM; N=3-9. *p <0.05 and **p<0.01. ‘S’ indicates synergy (Cl≦0.8). (E) The microvessel density profiles are expressed as the number of vessels per mm^2 and presented as a percentage of a control. […] The bar in the upper right image represents 0.5 mm and is valid for both images. Data points represent average values of 2 independent experiments and error bars represent SEM; N=3-7; **p<0.01.
# [3] = system: renal cell carcinoma (Caki-1) cells; conditions: combinations of Table 4
# Procedure: as §1
Compound,single-drug dose required for the same EC proliferation inhibition as the best combination (90% inhibition) (ECRF24 cells),theoretical dose reduction in combination (ECRF24 cells),inhibition of HUVEC viability (HUVEC),pAkt protein [1],"tumor growth inhibition, single compound at high concentration [2]","tumor growth inhibition, single compound at low concentration [2]",tumor growth inhibition (LS174T tumors),other results
"CNC(=O)c1ccccc1Sc1ccc2c(/C=C/c3ccccn3)n[nH]c2c1 [compound 3, axitinib]",–,–,–,–,–,–,–,inhibition of 786-0 cell viability (786-0 cells): approx. 30%
"C#Cc1cccc(Nc2ncnc3cc(OCCOC)c(OCCOC)cc23)c1 [compound 4, erlotinib]",approximately 50 μM,5 fold,more sensitive,slight decrease,~20%,approximately 6%,–,inhibition of A2780 cell viability (A2780 cells): approximately 40%; tumor growth inhibition at 5 mg/kg (LS174T tumors; 5 mg/kg): approximately 0%; tumor growth inhibition at 15 mg/kg (LS174T tumors; 15 mg/kg): ~6%
"Cc1ccc(C(C)C)cc1.[Cl][Ru]([Cl])[PH]12CN3CN(CN(C3)C1)C2 [compound 8, RAPTA-C]",~2000 µM,11 fold,–,slight decrease,~20%,approximately 6%,~10%,–
"Cn1c(=O)n(-c2ccc(C(C)(C)C#N)cc2)c2c3cc(-c4cnc5ccccc5c4)ccc3ncc21 [compound 9, BEZ-235]",~0.12 µM,6 fold,more sensitive,–,–,–,~23%,"pS6 expression [1]: nearly complete inhibition; pS6 expression ([1]; listed as BEZ235): inhibited; tumor growth inhibition, single compound at its applied concentration ([2]; limiting compound, dose used in the combinations): approximately 35%"
AZD4547,–,–,–,–,–,–,–,inhibition of Caki-1 cell proliferation / synergy [3]: effective and synergistic inhibition
